The results in this text go back to ChEMBL document CHEMBL1201862, “PubChem BioAssay data set” (2004).

Some test systems named below: MOLT-4; PC-3; UACC-62; EKVX; NCI-H23; MDA-N; UO-31; SK-MEL-2; ACHN; HCT-15; T47D; Hs-578T; UACC-257; SW-620; MCF7; Malme-3M; SF-268; U-251; SF-539; RPMI-8226.
Common to all, as to test: inhibition of tumour cell growth, NCI panel, 48 h

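The compound was tested at five concentrations on cells cultured in 96-well plates, with a 48-hour exposure period. GI50: concentration for 50% inhibition of growth.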 Calls of active or inactive are those of the source. Cut-off read from the data, not from the text of the source: active = GI50 up to about 1.1 µM and inactive = higher.

As for `Cc1cccc2c(N)c3cccc(C(=O)NCC[N+](C)(C)Cc4sccc4[N+](=O)[O-])c3nc12`, the GI50 with MOLT-4 is 0.871 µM (active); in the experiment on PC-3 it was 11.9 µM (inactive); in the experiment on UACC-62, 13.6 µM (inactive); with EKVX it was 18.6 µM (inactive); in the experiment with NCI-H23 it was 3.94 µM (inactive); in the experiment on MDA-N it was 19.6 µM (inactive). In addition, the GI50 is 20.5 µM (inactive) with UO-31; 72.9 µM (inactive) in the experiment with SK-MEL-2; 3.78 µM (inactive) in the experiment on ACHN; 6.18 µM in the experiment with HCT-15; 36.6 µM (inactive) with T47D; 1.11 µM (active) with Hs-578T. The GI50 was 26.9 µM (inactive) in the experiment with UACC-257; 5.86 µM (inactive) in the experiment with SW-620; 2.04 µM (inactive) in the experiment with MCF7; 10.4 µM (inactive) with Malme-3M; 19 µM (inactive) with SF-268; 6.47 µM (inactive) with U-251. Besides, the GI50 in the experiment with SF-539 is 2.83 µM (inactive).

In the case of `O=C(Nc1ccc2ccccc2c1)c1cc2cc(CCl)ccc2oc1=O`, the GI50 was > 100 µM (inactive) in the experiment on MOLT-4; > 100 µM (inactive) in the experiment with PC-3; > 100 µM (inactive) with UACC-62; > 100 µM (inactive) in the experiment on EKVX; 19 µM (inactive) in the experiment on NCI-H23; > 100 µM (inactive) with MDA-N. The GI50 is > 100 µM (inactive) with UO-31; 24 µM (inactive) with SK-MEL-2; > 100 µM (inactive) with ACHN; over 100 µM in the experiment on HCT-15; > 100 µM (inactive) in the experiment with T47D; 1.55 µM (inactive) in the experiment with Hs-578T. Moreover, the GI50 was > 100 µM (inactive) in the experiment with UACC-257; > 100 µM (inactive) with SW-620; 38.5 µM (inactive) with MCF7; 87.7 µM (inactive) with Malme-3M; 14.2 µM (inactive) in the experiment on SF-268; 30.8 µM (inactive) with U-251. Moreover, in the experiment on RPMI-8226, the GI50 is > 100 µM (inactive).

Turning to `Cc1c(O)nc(-n2[nH]c3c(c2=O)CCCC3)[nH]c1=O`, the GI50 in the experiment on MOLT-4, in the experiment with PC-3, with UACC-62, in the experiment on EKVX, in the experiment with NCI-H23 and with MDA-N was > 100 µM (inactive) throughout. Also, the GI50 with UO-31 is > 100 µM (inactive); in the experiment on SK-MEL-2, > 100 µM (inactive); in the experiment on ACHN, > 100 µM (inactive); in the experiment with HCT-15 it was over 100 µM; in the experiment on T47D, > 100 µM (inactive); in the experiment with Hs-578T, > 100 µM (inactive). In addition, the GI50 in the experiment with UACC-257, in the experiment with SW-620, with Malme-3M, in the experiment on SF-268, in the experiment with U-251 and in the experiment on RPMI-8226 was > 100 µM (inactive) in each case.

As to `COc1ccc(/C=C/c2cc(OC)c(OC)c(OC)c2)cc1O[Si](C)(C)C(C)(C)C`, the GI50 in the experiment on MOLT-4 was 4.22 µM (inactive); in the experiment with PC-3 it was 4.72 µM (inactive); in the experiment on UACC-62, 3.35 µM (inactive); with EKVX, 5.81 µM (inactive); in the experiment with NCI-H23, 5.62 µM (inactive); in the experiment on MDA-N it was 2.27 µM (inactive). The GI50 in the experiment with UO-31 was 7.31 µM (inactive); in the experiment with SK-MEL-2, 7.8 µM (inactive); in the experiment on ACHN, 7.87 µM (inactive); in the experiment with HCT-15, 3.33 µM; in the experiment on T47D it was 18.7 µM (inactive); in the experiment on Hs-578T, 3.15 µM (inactive). Besides, the GI50 in the experiment on UACC-257 was 10.4 µM (inactive); with SW-620 it was 2.91 µM (inactive); with MCF7, 3.6 µM (inactive); with SF-268, 15.8 µM (inactive); in the experiment with U-251 it was 3.11 µM (inactive); with SF-539, 2.32 µM (inactive). The GI50 in the experiment on RPMI-8226 is 0.0494 µM (active).

As to `CN(C)c1ccc(/N=C2/NC(=N\c3ccccc3)/C(=N/c3ccccc3)S2)cc1`, the GI50 in the experiment with MOLT-4 was 89.1 µM (inactive); in the experiment on PC-3, > 100 µM (inactive); with UACC-62, 51.2 µM (inactive); in the experiment on EKVX, > 100 µM (inactive); in the experiment on NCI-H23, > 100 µM (inactive); in the experiment with MDA-N, > 100 µM (inactive). For the same molecule, the GI50 is 98.2 µM (inactive) with SK-MEL-2; 49.1 µM (inactive) in the experiment on ACHN; over 100 µM with HCT-15; 53.1 µM (inactive) in the experiment on T47D; 30.7 µM (inactive) in the experiment with Hs-578T; > 100 µM (inactive) in the experiment on UACC-257. Also, the GI50 with SW-620 is > 100 µM (inactive); with MCF7, 19.9 µM (inactive); in the experiment with Malme-3M, > 100 µM (inactive); in the experiment with SF-268 it was > 100 µM (inactive); with SF-539, > 100 µM (inactive).

`CCCCc1ccc(N2C(=O)c3cc(C)cnc3S2(=O)=O)cc1`: the GI50 with MOLT-4, in the experiment with PC-3, in the experiment on EKVX, with NCI-H23, with MDA-N and in the experiment with UO-31 was > 100 µM (inactive) in each case. The GI50 is > 100 µM (inactive) in the experiment with SK-MEL-2; > 100 µM (inactive) in the experiment with ACHN; over 100 µM in the experiment with HCT-15; > 100 µM (inactive) with T47D; 43.1 µM (inactive) with Hs-578T; > 100 µM (inactive) in the experiment with SW-620. Also, the GI50 was > 100 µM (inactive) in the experiment with MCF7; > 100 µM (inactive) with Malme-3M; 97.5 µM (inactive) in the experiment on SF-268; > 100 µM (inactive) with U-251; > 100 µM (inactive) with RPMI-8226.

Regarding `COc1ccc2[nH]c3ccc4cc[n+](CCN5CCC(C6CCN(CC[n+]7ccc8ccc9[nH]c%10ccc(OC)cc%10c9c8c7)CC6)CC5)cc4c3c2c1`, the GI50 in the experiment with MOLT-4 is 0.346 µM (active); with PC-3, 31 µM (inactive); with UACC-62, 0.938 µM (active); with EKVX, > 50 µM (inactive); in the experiment with NCI-H23 it was > 50 µM (inactive); in the experiment on MDA-N, 2.96 µM (inactive). Besides, the GI50 with UO-31 was > 100 µM (inactive); in the experiment on SK-MEL-2 it was > 52.7 µM (inactive); in the experiment on ACHN, 0.18 µM (active); in the experiment on HCT-15 it was 2.24 µM; with T47D it was 20.4 µM (inactive); in the experiment with Hs-578T it was 33 µM (inactive). Besides, the GI50 in the experiment on UACC-257 was 35.2 µM (inactive); in the experiment on SW-620, 0.316 µM (active); with Malme-3M it was 0.526 µM (active); in the experiment with SF-268 it was 1.97 µM (inactive); in the experiment on U-251, 4.67 µM (inactive); in the experiment on SF-539 it was 2.65 µM (inactive).

On to `Cc1cc(C)nc(SCCc2cccc[n+]2C)n1`, for which the GI50 was > 100 µM (inactive) in the experiment with MOLT-4; > 100 µM (inactive) in the experiment with PC-3; > 100 µM (inactive) with UACC-62; 24.9 µM (inactive) in the experiment with EKVX; > 100 µM (inactive) with NCI-H23; > 100 µM (inactive) with MDA-N. For the same molecule, the GI50 in the experiment on UO-31 is > 100 µM (inactive); in the experiment with ACHN, > 100 µM (inactive); in the experiment on HCT-15 it was over 100 µM; with T47D it was > 100 µM (inactive); in the experiment on Hs-578T, > 100 µM (inactive); with UACC-257, > 100 µM (inactive). The GI50 with SW-620, in the experiment on MCF7, in the experiment on Malme-3M, in the experiment on SF-268, in the experiment on U-251 and in the experiment with RPMI-8226 was > 100 µM (inactive) throughout.

Turning to `COc1cc(OC)cc(-n2c(N)c(-c3nc4ccccc4n3C)c3ccc([N+](=O)[O-])cc3c2=O)c1`, the GI50 in the experiment on PC-3, with UACC-62, with NCI-H23, in the experiment on MDA-N, with UO-31 and with SK-MEL-2 was > 100 µM (inactive) each time. Besides, the GI50 in the experiment on ACHN is 83.4 µM (inactive); with HCT-15 it was over 100 µM; in the experiment with T47D, > 100 µM (inactive); in the experiment on Hs-578T it was 26.4 µM (inactive); with UACC-257, > 100 µM (inactive); with SW-620, > 100 µM (inactive). Moreover, the GI50 was 55.5 µM (inactive) in the experiment with SF-268, 46.8 µM (inactive) in the experiment on U-251 and > 100 µM (inactive) with RPMI-8226.

With `Cn1c(=O)c2c(nc3n(Cc4ccccc4)c(=O)c(Br)cn23)n(C)c1=O`, the GI50 with MOLT-4, with PC-3, in the experiment with UACC-62, with EKVX, in the experiment with NCI-H23 and in the experiment with MDA-N was > 100 µM (inactive) in each case. Moreover, the GI50 in the experiment with UO-31 was > 100 µM (inactive); in the experiment on SK-MEL-2 it was > 100 µM (inactive); in the experiment with ACHN it was > 100 µM (inactive); in the experiment on HCT-15, over 100 µM; in the experiment with T47D it was > 100 µM (inactive); with Hs-578T, > 100 µM (inactive). For the same molecule, the GI50 in the experiment on UACC-257, in the experiment on SW-620, in the experiment with MCF7, in the experiment on SF-268, in the experiment on U-251 and in the experiment on SF-539 was > 100 µM (inactive) throughout. Further, in the experiment with RPMI-8226, the GI50 is > 100 µM (inactive).

On to `CC1(C)N=c2c(ncn2N)=C(C(N)=O)N1`, for which the GI50 in the experiment with PC-3, in the experiment with UACC-62, in the experiment with EKVX, with NCI-H23, with MDA-N and in the experiment on ACHN was > 100 µM (inactive) in each case. For the same molecule, the GI50 in the experiment with HCT-15 was over 100 µM; in the experiment on T47D, > 100 µM (inactive); in the experiment on Hs-578T, > 100 µM (inactive); in the experiment with UACC-257, > 100 µM (inactive); in the experiment with SW-620 it was > 100 µM (inactive); with MCF7 it was > 100 µM (inactive). Moreover, the GI50 in the experiment with Malme-3M, in the experiment with SF-268, in the experiment on U-251, in the experiment with SF-539 and in the experiment on RPMI-8226 was > 100 µM (inactive) in each case.
